These results are taken from US9249148B2, “Tris(hetero)arylpyrazoles and use thereof” (AICURIS GMBH & CO. KG, priority 2012, dated 2016).

Holding throughout (type): cell-based
One assay deals with HIV-1NL4-3 wildtype. Description: Luminescence Reduction Assay, luciferase reporter virus in MT4 cells. The following applies: Human immunodeficiency virus 1, MT4, read-out: EC50 (μM) MT4 cells HIV-1NL4-3 wildtype 2% FBS. From the text: (§1) For this assay, HIV-1NL4-3 reporter viruses are used which carry the luciferase164 gene (lu164) in place of the nef gene. The viruses are generated by transfection of 293T cells with the corresponding proviral pNL4-3 plasmid (Lipofectamine Reagent, Invitrogen, Karlsruhe, Germany). Starting from the proviral plasmid DNA, viruses with defined resistance mutations (single or combined) are produced in the reverse transcriptase gene using the “QuikChange II XL Site-Directed Mutagenesis Kit” (Stratagene, Cedar Creek, Tex., USA). Resistance mutations include, among others: L74V, A98G, A98S, L100I, K101E, K103N, V106A, V106I, V106M, V108I, V108A, E138K, V179I, V179D, V179E, Y181C, Y181I, Y188L, G190A, G1905, H221Y, P225H, F227C, F227L, F227V, M230I, M230L, L234I, P236L, N348I, T369A, T369I, T369V. MT4 cells infected with these reporter viruses (NIH AIDS Research and Reference Reagent Program) secrete luciferase into the medium, which enables the luminometric quantification of the virus replication.
(§2) For starting a 96-well MTP, 3 million MT4 cells are pelleted, suspended in 1 ml RPMI 1640 medium without phenol red (Invitrogen, Karlsruhe, Germany)/10% FBS/2 mM L-glutamine/1% Pen/Strep (Invitrogen, Karlsruhe, Germany), and incubated for 2 hours at 37° C. with a suitable quantity of the relevant HIV-1NL4-3 reporter virus (pellet infection). Non-adsorbed viruses are then washed out, and the infected cells are pelleted again and suspended in 8 ml RPMI 1640 medium without phenol red/2% or 10% FBS/2 mM L-glutamine/1% Pen/Strep. From this, 90 μl per well is pipetted into a white 96-well MTP to 10 μl of test substance at a suitable level of dilution. In order to avoid edge effects, the edge wells of the MTP are not used for substance dilutions. The second vertical row of the MTP contains only infected cells (virus control) and the eleventh vertical row only non-infected cells (cell control), each in RPMI 1640 medium without phenol red/2% or 10% FBS/2 mM L-glutamine/1% Pen/Strep. The remaining wells of the MTP contain the compounds in accordance with the invention in various concentrations, starting from the third vertical row, from which the test substances are diluted in 3-step sequences up to the tenth vertical row by a factor of 3^7. The test substances are dissolved in DMSO; the final DMSO concentration in the test formulation is 1%.

The test system of a further assay is HIV-1LAI wildtype. Description: alamarBlue Viability Assay with HIV-1LAI-infected MT4 cells. The note with it: Human immunodeficiency virus 1, 10% FBS. The procedure:
For starting a 96-well MTP, 3 million PBLs are pelleted, suspended in 1 ml RPMI 1640 medium/10% FBS/2 mM L-glutamine/1% Pen/Strep and incubated for 2 hours at 37° C. with a suitable quantity of the relevant HIV-1LAI (NIH AIDS Research & Reference Reagent Program, Germantown, USA) (pellet infection). Non-adsorbed viruses are then washed out, and the infected cells pelleted again and suspended in 18 ml RPMI 1640 medium/10% FBS/2 mM L-glutamine/1% Pen/Strep/Interleukin-2 (40 U/ml). From this, 180 μl per well is pipetted into a 96-well MTP to 20 μl of test substance at a suitable level of dilution. Alternatively, the HIV is added after preparation of the substance dilutes in the MTP together with the cells, and is not washed out (supernatant infection). In order to avoid edge effects, the edge wells of the MTP are not used for substance dilutions. The second vertical row of the MTP contains only infected cells (virus control) and the eleventh vertical row only non-infected cells (cell control), each in RPMI 1640 medium/10% FBS/2 mM L-glutamine/1% Pen/Strep/Interleukin-2 (40 U/ml). The remaining wells of the MTP contain the compounds in accordance with the invention in various concentrations, starting from the third vertical row, from which the test substances are diluted in 3-step sequences up to the tenth vertical row by a factor of 3^7. The test substances are dissolved in DMSO; the final DMSO concentration in the test preparation is 1%. The test samples are incubated for 5 days at 37° C./5% CO2. After 5 to 7 days, 50 μl of cell-free supernatant is removed from each well to determine its p24 content using p24 ELISA (HIV-1 p24CA Antigen Capture Assay Kit, NCI-Frederick Cancer Research and Development Center, Frederick, USA). From the resulting values of the photometric analysis (450/620 nm), the EC50 values of the test substances are determined from the resulting dose-response curves using the Prism4 software (GraphPad, San Diego, Calif.) as the concentration of treated infected cells, where the p24 quantity is 50% of the untreated infected cells.
Alternatively, MT4 cells are used in place of PBLs for testing the test substances. HIV-1LAI-infected MT4 cells (MOI 0.01, supernatant infection) are incubated in accordance with the procedure described above in RPMI 1640 medium using 2% or 10% FKS/2 mM L-glutamine/1% Pen/Strep in the presence of the test substances for 5 days at 37° C./5% CO2 (10 μl diluted substance and 90 μl cells/virus per well). 10 μl alamarBlue (Invitrogen, Karlsruhe, Germany) is then added per well and the MTPs are incubated for 3 hours at 37° C. before fluorimetric evaluation is performed (544/590 nm). Using quattroWorkflow software (Quattroresearch, Martinsried, Germany), the EC50 values of the test substances are determined from the resulting dose-response curves as the concentration of treated infected cells in which the fluorescence is 50% of that of the untreated, non-infected cells.
(Resazurin is reduced to fluorescent resorufin, in cell work by metabolically active cells.)

A further assay concerns HIV-1NL4-3 K103N-Y181C. Description: Luminescence Reduction Assay, luciferase reporter virus with resistance mutations in MT4 cells. The following applies: Human immunodeficiency virus 1, MT4, read-out: EC50 (μM) MT4 cells HIV-1NL4-3 K103N-Y181C 2% FBS.
From the text: as §1, §2
In general terms: In a reporter assay the amount or activity of a reporter protein is the signal.

Turning to `O=C1NCc2c1ccnc2-c1cc(-c2cc(Cl)cc(OC(F)F)c2)n(-c2cccnc2)n1` [Example 16, 4-{5-[3-chloro-5-(difluoromethoxy)phenyl]-1-(pyridine-3-yl)-1H-pyrazole-3-yl}-2,3-dihydro-1H-pyrrolo[3,4-c]pyridine-1-one], the EC50 (commonly the concentration at which the effect is half-maximal) in the assay with HIV-1NL4-3 wildtype turned out to be 0.0005 µM; in the assay with HIV-1LAI wildtype, 0.0023 µM; with HIV-1NL4-3 K103N-Y181C, 0.0026 µM.
The matching figures for `O=C1NCc2c1ccnc2-c1cc(-c2cc(Cl)cc(OC(F)F)c2)n(-c2ccnc(Cl)c2)n1` [Example 17, 4-{5-[3-chloro-5-(difluoromethoxy)phenyl]-1-(2-chloropyridine-4-yl)-1H-pyrazole-3-yl}-2,3-dihydro-1H-pyrrolo[3,4-c]pyridine-1-one]: 0.0011 µM, 0.0086 µM and 0.0049 µM.
The matching figures for `O=C1NCc2c1cccc2-c1cc(-c2cc(Cl)cc(OC(F)F)c2)n(-c2cccnc2)n1` [Example 18, 4-{5-[3-chloro-5-(difluoromethoxy)phenyl]-1-(pyridine-3-yl)-1H-pyrazole-3-yl}-2,3-dihydro-1H-isoindole-1-one]: 0.0056 µM, 0.0177 µM and 0.013 µM.
For `O=C1NCc2c1ccnc2-c1cc(-c2cc(Br)cc(OC(F)F)c2)n(-c2cccnc2)n1` [Example 19, 4-{5-[3-bromo-5-(difluoromethoxy)phenyl]-1-(pyridine-3-yl)-1H-pyrazole-3-yl}-2,3-dihydro-1H-pyrrolo[3,4-c]pyridine-1-one] the same measures were 0.0003 µM, 0.0028 µM and 0.0019 µM.
Consider `O=C1NCc2c1ccnc2-c1cc(-c2cc(Br)cc(OC(F)F)c2)n(-c2ccnc(Cl)c2)n1` [Example 20, 4-{5-[3-bromo-5-(difluoromethoxy)phenyl]-1-(2-chloropyridine-4-yl)-1H-pyrazole-3-yl}-2,3-dihydro-1H-pyrrolo[3,4-c]pyridine-1-one], for which the EC50 in the assay on HIV-1NL4-3 wildtype came out at 0.001 µM; with HIV-1LAI wildtype it was 0.0118 µM; in the assay with HIV-1NL4-3 K103N-Y181C, 0.004 µM.
For `O=C1NCc2c1cccc2-c1cc(-c2cc(Br)cc(OC(F)F)c2)n(-c2cccnc2)n1` [Example 21, 4-{5-[3-bromo-5-(difluoromethoxy)phenyl]-1-(pyridine-3-yl)-1H-pyrazole-3-yl}-2,3-dihydro-1H-isoindole-1-one] the same measures were 0.0063 µM, 0.0325 µM and 0.0283 µM.
The matching figures for `Cc1cc(F)cc(-c2cc(-c3nccc4c3CNC4=O)nn2-c2ccc(F)c(Cl)c2)c1` [Example 22]: 0.0009 µM, 0.0245 µM and 0.0077 µM.
For `Cc1cc(F)cc(-c2cc(-c3cccc4c3CNC4=O)nn2-c2ccc(F)c(Cl)c2)c1` [Example 23] the same measures were 0.015 µM, 0.0983 µM and 0.0565 µM.
For `N#Cc1cc(-n2nc(-c3nccc4c3CNC4=O)cc2-c2cc(F)cc(Cl)c2)ccc1F` [Example 24], the results for the EC50 in the assay on HIV-1NL4-3 wildtype, in the assay on HIV-1LAI wildtype and in the assay on HIV-1NL4-3 K103N-Y181C were 0.0002 µM, 0.0006 µM and 0.0003 µM, respectively.
For `N#Cc1cc(-n2nc(-c3cccc4c3CNC4=O)cc2-c2cc(F)cc(Cl)c2)ccc1F` [Example 25] the same measures were 0.0009 µM, 0.0107 µM and 0.0112 µM.
The matching figures for `O=C1NCc2c1ccnc2-c1cc(-c2cc(F)cc(Cl)c2)n(-c2cccc(Cl)c2)n1` [Example 26]: 0.0017 µM, 0.0153 µM and 0.0208 µM.
Regarding `COc1cc(OC(F)(F)F)cc(-c2cc(-c3nccc4c3CNC4=O)nn2-c2ccc(F)c(Cl)c2)c1` [Example 27], the results for the EC50 with HIV-1NL4-3 wildtype, in the assay with HIV-1LAI wildtype and in the assay on HIV-1NL4-3 K103N-Y181C were 0.0384 µM, 0.148 µM and 0.0219 µM, respectively.
The matching figures for `Cc1ccc(-n2nc(-c3nccc4c3CNC4=O)cc2-c2cc(F)cc(Cl)c2)cc1Cl` [Example 28]: 0.0172 µM, 0.0876 µM and 0.0291 µM.
On to `O=c1[nH][nH]c2c(-c3cc(-c4cc(F)cc(Cl)c4)n(-c4ccc(F)c(Cl)c4)n3)cccc12` [Example 29], for which the EC50 is 0.39 µM in the assay with HIV-1NL4-3 wildtype, 2.06 µM with HIV-1LAI wildtype and 1.22 µM in the assay on HIV-1NL4-3 K103N-Y181C.
For `O=C1NCc2c1ccnc2-c1cc(-c2cc(Cl)cc(C(F)(F)F)c2)n(-c2ccc(F)c(Cl)c2)n1` [Example 30] the same measures were 0.0075 µM, 0.0881 µM and 0.011 µM.
The matching figures for `O=C1NCc2c1ccnc2-c1cc(-c2cncc(Cl)c2)n(-c2ccc(F)c(Cl)c2)n1` [Example 31]: 0.0008 µM, 0.0041 µM and 0.0024 µM.
For `O=C1NCc2c1cccc2-c1cc(-c2cncc(Cl)c2)n(-c2ccc(F)c(Cl)c2)n1` [Example 32] the same measures were 0.0069 µM, 0.0273 µM and 0.0383 µM.
On to `O=C1NCc2c1ccnc2-c1cc(-c2cccc(F)c2F)n(-c2ccc(F)c(Cl)c2)n1` [Example 33], for which the concentration for a half-maximal effect (EC50) in the assay with HIV-1NL4-3 wildtype was found to be 0.0227 µM; in the assay with HIV-1LAI wildtype it was 0.0641 µM; in the assay on HIV-1NL4-3 K103N-Y181C, 0.061 µM.
For `O=C1NCc2c1cccc2-c1cc(-c2cccc(F)c2F)n(-c2ccc(F)c(Cl)c2)n1` [Example 34] the same measures were 0.131 µM, 0.75 µM and 0.458 µM.
The matching figures for `N#Cc1cccc(-c2cc(-c3nccc4c3CNC4=O)nn2-c2ccc(F)cc2)c1` [Example 35]: 0.0593 µM, 0.15 µM and 0.0317 µM.
For `N#Cc1cccc(-c2cc(-c3cccc4c3CNC4=O)nn2-c2ccc(F)cc2)c1` [Example 36] the same measures were 0.0848 µM, 0.449 µM and 0.0675 µM.
Consider `O=C1NCc2c1ccnc2-c1cc(-c2cccc(Cl)c2)n(-c2cccc(C(F)(F)F)c2)n1` [Example 37], for which the results for the EC50 in the assay with HIV-1NL4-3 wildtype, with HIV-1LAI wildtype and with HIV-1NL4-3 K103N-Y181C were 0.0288 µM, 0.0835 µM and 0.148 µM, respectively.
On to `O=C1NCc2c1cccc2-c1cc(-c2cccc(Cl)c2)n(-c2cccc(C(F)(F)F)c2)n1` [Example 38], for which the figures for the EC50 in the assay with HIV-1NL4-3 wildtype, in the assay on HIV-1LAI wildtype and in the assay with HIV-1NL4-3 K103N-Y181C were 0.18 µM, 0.948 µM and 1.18 µM, respectively.
